Test results: article PMC11364775, “Ion occupancy of the selectivity filter controls opening of a cytoplasmic gate in the K2P channel TALK-2” (Nature Communications, 2024)

Molecular target: T1, WT TREK-2 channels (Homo sapiens, UniProt P57789)
T1 construct: expressed in transfected cells; host or cells: Xenopus laevis oocytes (cRNA injection), excised inside-out patches
T1 sequence (P57789 1-538): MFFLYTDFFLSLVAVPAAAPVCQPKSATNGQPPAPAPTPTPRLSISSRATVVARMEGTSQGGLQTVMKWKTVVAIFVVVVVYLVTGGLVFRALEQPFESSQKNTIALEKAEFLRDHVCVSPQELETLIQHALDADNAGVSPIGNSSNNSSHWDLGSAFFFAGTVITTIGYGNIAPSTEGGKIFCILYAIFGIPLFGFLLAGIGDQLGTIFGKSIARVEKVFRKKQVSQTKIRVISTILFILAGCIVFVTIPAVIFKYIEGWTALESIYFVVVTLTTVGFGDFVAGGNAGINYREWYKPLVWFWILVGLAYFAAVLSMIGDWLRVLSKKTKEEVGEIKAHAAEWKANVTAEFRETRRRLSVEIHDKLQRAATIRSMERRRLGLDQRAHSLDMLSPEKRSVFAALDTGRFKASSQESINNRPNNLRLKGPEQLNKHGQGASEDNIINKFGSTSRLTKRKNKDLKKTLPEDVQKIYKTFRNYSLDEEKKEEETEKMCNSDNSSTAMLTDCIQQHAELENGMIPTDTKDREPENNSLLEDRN
Assay: Conductance-voltage (G-V) curves from tail currents, V1/2 (intracellular Rb+)
Assay type: cell-based
Excerpt: The voltage-dependent activation mechanism of the SF gate in K2P channels allows to estimate the electrical work (ΔG = zFΔV1/2) required for pore opening by fitting the G–V curve to a Boltzmann equation. […] The open state represents the situation of both gates being simultaneously open but voltage can only exert force on the SF gate that functions as voltage sensor. […] We further tested whether mutations that open the lower gate (L262A and L264A) would affect the extracellular pH sensitivity. […] We further explored this concept of allosteric coupling using the mutations identified in the functional alanine screen of TM2 and TM4. […]
Conductance-voltage (G–V) relationships were determined from tail currents recorded at a holding potential (VH) of −80 mV after 300 ms depolarizing steps as indicated in the respective figure legend. Data were analyzed with a single Boltzmann fit following Eq. 6:6 GV=Imax/1+e^V−V1/2/slope+Ibase where V1/2 represents the voltage of half-maximal activation, s is the slope factor and Imax and Ibase represent the upper and lower asymptotes. Under appropriate experimental conditions, you can use slope to calculate the valence (charge) of the ion moving across the channel. Slope equals R * T/ z * F where R is the universal gas constant, T is temperature in K, F is the Faraday constant, and z is the valence.

Work on `CCCCC[N+](CCCCC)(CCCCC)CCCCC` [TPenA, Tetra-pentyl-ammonium chloride] yielded a Normalized current (TREK-2 WT + 0.1 mM TPenA, Voltage -0.090) of 0.044, a Normalized current (TREK-2 WT + 0.1 mM TPenA, Voltage -0.095) of 0.044 and a Normalized current (TREK-2 WT + 1 mM TPenA, Voltage 0.000) of 0.164. The Normalized current (TREK-2 WT + 1 mM TPenA, Voltage 0.005) was 0.199, the Normalized current (TREK-2 WT + 1 mM TPenA, Voltage 0.010) was 0.243 and the Normalized current (TREK-2 WT + 1 mM TPenA, Voltage 0.015) was 0.286. It also gave a Normalized current (TREK-2 WT + 1 mM TPenA, Voltage 0.020) of 0.362, a Normalized current (TREK-2 WT + 1 mM TPenA, Voltage 0.025) of 0.446 and a Normalized current (TREK-2 WT + 1 mM TPenA, Voltage 0.030) of 0.519. For the same compound, the Normalized current (TREK-2 WT + 1 mM TPenA, Voltage 0.035) was 0.589, the Normalized current (TREK-2 WT + 1 mM TPenA, Voltage 0.040) was 0.634 and the Normalized current (TREK-2 WT + 1 mM TPenA, Voltage 0.045) was 0.688. It also gave a Normalized current (TREK-2 WT + 1 mM TPenA, Voltage 0.050) of 0.702, a Normalized current (TREK-2 WT + 1 mM TPenA, Voltage 0.055) of 0.751 and a Normalized current (TREK-2 WT + 1 mM TPenA, Voltage 0.060) of 0.768. For the same compound, the Normalized current (TREK-2 WT + 1 mM TPenA, Voltage 0.065) was 0.790, the Normalized current (TREK-2 WT + 1 mM TPenA, Voltage 0.070) was 0.818 and the Normalized current (TREK-2 WT + 1 mM TPenA, Voltage 0.075) was 0.805. The Normalized current (TREK-2 WT + 1 mM TPenA, Voltage 0.080) was 0.838, the Normalized current (TREK-2 WT + 1 mM TPenA, Voltage 0.085) was 0.838 and the Normalized current (TREK-2 WT + 1 mM TPenA, Voltage 0.090) was 0.887. For the same compound, the Normalized current (TREK-2 WT + 1 mM TPenA, Voltage 0.095) was 0.885, the Normalized current (TREK-2 WT + 1 mM TPenA, Voltage 0.100) was 0.885 and the Normalized current (TREK-2 WT + 1 mM TPenA, Voltage 0.105) was 0.883. For the same compound, the Normalized current (TREK-2 WT + 1 mM TPenA, Voltage 0.110) was 0.905, the Normalized current (TREK-2 WT + 1 mM TPenA, Voltage 0.115) was 0.909 and the Normalized current (TREK-2 WT + 1 mM TPenA, Voltage 0.120) was 0.967. It also gave a Normalized current (TREK-2 WT + 1 mM TPenA, Voltage 0.125) of 0.928, a Normalized current (TREK-2 WT + 1 mM TPenA, Voltage 0.130) of 0.900 and a Normalized current (TREK-2 WT + 1 mM TPenA, Voltage 0.135) of 0.929. It also gave a Normalized current (TREK-2 WT + 1 mM TPenA, Voltage 0.140) of 0.939, a Normalized current (TREK-2 WT + 1 mM TPenA, Voltage 0.145) of 0.922 and a Normalized current (TREK-2 WT + 1 mM TPenA, Voltage 0.150) of 0.939. The Normalized current (TREK-2 WT + 1 mM TPenA, Voltage -0.005) was 0.135, the Normalized current (TREK-2 WT + 1 mM TPenA, Voltage -0.010) was 0.126 and the Normalized current (TREK-2 WT + 1 mM TPenA, Voltage -0.015) was 0.111. It also gave a Normalized current (TREK-2 WT + 1 mM TPenA, Voltage -0.020) of 0.109, a Normalized current (TREK-2 WT + 1 mM TPenA, Voltage -0.025) of 0.110 and a Normalized current (TREK-2 WT + 1 mM TPenA, Voltage -0.030) of 0.103. The Normalized current (TREK-2 WT + 1 mM TPenA, Voltage -0.035) was 0.102, the Normalized current (TREK-2 WT + 1 mM TPenA, Voltage -0.040) was 0.096 and the Normalized current (TREK-2 WT + 1 mM TPenA, Voltage -0.045) was 0.095. It also gave a Normalized current (TREK-2 WT + 1 mM TPenA, Voltage -0.050) of 0.089, a Normalized current (TREK-2 WT + 1 mM TPenA, Voltage -0.055) of 0.092 and a Normalized current (TREK-2 WT + 1 mM TPenA, Voltage -0.060) of 0.088. It also gave a Normalized current (TREK-2 WT + 1 mM TPenA, Voltage -0.065) of 0.090, a Normalized current (TREK-2 WT + 1 mM TPenA, Voltage -0.070) of 0.088 and a Normalized current (TREK-2 WT + 1 mM TPenA, Voltage -0.075) of 0.085. It also gave a Normalized current (TREK-2 WT + 1 mM TPenA, Voltage -0.080) of 0.084, a Normalized current (TREK-2 WT + 1 mM TPenA, Voltage -0.085) of 0.087 and a Normalized current (TREK-2 WT + 1 mM TPenA, Voltage -0.090) of 0.084. It also gave a Normalized current (TREK-2 WT + 1 mM TPenA, Voltage -0.095) of 0.081.
